# Reference: PMC11784839, “Monoaminergic neurotransmitters are bimodal effectors of tau aggregation” (Science Advances, 2025)
# Biological target: tau (Homo sapiens, UniProt P10636)
# Assay: MCE Phenols Library screening, tau biosensor cell seeding assay (AvZ)
# Format: cell-based
# Conditions: for Z repl 1 / Z Repl 2: Z score; for Z repl 1 / raw data 1: replicate 1; for Z Repl 2 / raw data 2: replicate 2; for AvZ (average z score of seeding, SDs from the mean level of seeding): 10 μM phenol in cell cultures, AD brain homogenate preincubated 16 hours, two biological replicates, positive = catalyzes seeding, negative = inhibits
# [1] = average Z score of the two replicates, MCE Phenols Library screen
# [2] = average puncta of the two replicates
# [3] = average Z score of the two replicates, tau seeding
# [4] = average Z score of two replicates, Phenols Library screen
# [5] = average Z score of the two replicates, tau biosensor seeding, MCE Phenols Library screen
# Sequence of tau (P10636 623-695 limits assumed): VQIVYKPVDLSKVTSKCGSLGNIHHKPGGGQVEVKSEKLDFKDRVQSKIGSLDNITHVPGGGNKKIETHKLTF
SMILES,Z repl 1,Z Repl 2,av Z [1],av puncta [2],raw data 1 (raw puncta),raw data 2 (raw puncta),"AvZ (average z score of seeding, SDs from the mean level of seeding)",av puncta (average of raw data 1 and 2),raw data 1 (puncta),raw data 2 (puncta),av Z [3],av Z [4],av Z [5]
OC[C@H]1O[C@@H](Oc2cc(O)ccc2/C=C/c2cc(O)cc(O)c2)[C@H](O)[C@@H](O)[C@@H]1O [Oxyresveratrol 2-O-?-D-glucopyranoside],-0.859,0.047,-0.406,14655.6,16039.6,13271.6,–,–,–,–,–,–,–
Oc1cc(O)cc(/C=C/c2ccc(O)cc2O)c1 [Oxyresveratrol],0.048,-0.792,-0.372,15614.1,26923.9,4304.18,–,–,–,–,–,–,–
COc1ccc(C(C)=O)c(O)c1 [Paeonol],0.101,0.444,–,–,–,–,0.272,22534.1,27565,17503.1,–,–,–
O=C(O)CC(O)(CC(=O)OCc1ccc(O[C@@H]2O[C@H](CO)[C@@H](O)[C@H](O)[C@H]2O)cc1)C(=O)OCc1ccc(O[C@@H]2O[C@H](CO)[C@@H](O)[C@H](O)[C@H]2O)cc1 (some centres unmarked) [Parishin B],0.462,0.318,–,–,–,–,–,24029.7,31895.3,16164,0.39,–,–
O=C(O)CC(O)(CC(=O)OCc1ccc(O[C@@H]2O[C@H](CO)[C@@H](O)[C@H](O)[C@H]2O)cc1)C(=O)O (some centres unmarked) [Parishin E],-1.04,-0.216,-0.628,12158.4,–,–,–,–,13862,10454.8,–,–,–
COc1ccc(-c2cc(=O)c3c(O)c(OC)c(O)cc3o2)cc1 [Pectolinarigenin],-0.106,0.876,–,–,–,–,–,23601.4,25077.3,22125.4,0.385,–,–
COc1ccc(-c2cc(=O)c3c(O)c(OC)c(O[C@@H]4O[C@H](CO[C@@H]5O[C@@H](C)[C@H](O)[C@@H](O)[C@H]5O)[C@@H](O)[C@H](O)[C@H]4O)cc3o2)cc1 [Pectolinarin],0.677,-0.144,–,–,–,–,–,22850.6,34472.8,11228.4,0.266,–,–
O=C(O)Cc1cc(O)ccc1O[C@@H]1O[C@H](CO)[C@@H](O)[C@H](O)[C@H]1O [Phaseoloidin],-0.056,-0.658,-0.357,15704.2,25674.3,5734.06,–,–,–,–,–,–,–
COc1cc2c(cc1O)C[C@H]1c3cc(O)c(OC)cc3CC[N@@+]1(C)C2.[Cl-] [Phellodendrine (chloride)],0.263,-0.68,-0.208,17505.3,29504.3,5506.25,–,–,–,–,–,–,–
O=C(CCc1ccc(O)cc1)c1c(O)cc(O)cc1O [Phloretin],-0.858,-0.477,-0.667,11860.9,–,–,–,–,16053.8,7668.02,–,–,–
O=C(CCc1ccc(O)cc1)c1c(O)cc(O)cc1O[C@@H]1O[C@H](CO)[C@@H](O)[C@H](O)[C@H]1O [Phlorizin],-0.297,-0.278,-0.288,16285.7,22779.3,9792.07,–,–,–,–,–,–,–
OC[C@H]1O[C@@H](Oc2cc(/C=C/c3cc(O)cc(O)c3)ccc2O)[C@H](O)[C@@H](O)[C@@H]1O [Piceatannol 3'-O-glucoside],0.407,0.408,–,–,–,–,–,24178.5,31229.6,17127.3,0.407,–,–
Oc1cc(O)cc(/C=C/c2ccc(O)c(O)c2)c1 [Piceatannol],-1.302,–,-1.235,–,–,–,–,5506.01,10717.8,294.245,–,–,–
COc1cc(C(=O)O[C@H]2[C@@H]3C=CO[C@@H](O[C@@H]4O[C@H](CO)[C@@H](O)[C@H](O)[C@H]4O)[C@@H]3[C@@]3(CO)O[C@@H]23)ccc1O [Picroside II],-0.222,-0.853,-0.537,13671.5,–,–,–,–,23683.5,3659.57,–,–,–
COc1cc(O)cc(/C=C/c2ccc(O)cc2)c1 [Pinostilbene],0.091,-0.704,-0.306,16345.6,27446.2,5245.02,–,–,–,–,–,–,–
CC1=CC(=O)c2c(O)cccc2C1=O [Plumbagin],-2.104,-0.904,-1.504,–,–,–,–,2099.32,1092.19,3106.45,–,–,–
CCCOC(=O)c1ccc(O)cc1 [Propylparaben],0.084,0.893,–,–,–,–,0.488,24829.8,27354.6,22304.9,–,–,–
O=C(O)c1ccc(O)c(O)c1 [Protocatechuic acid],-0.928,-0.202,–,12912.5,–,–,-0.565,–,15212.3,10612.8,–,–,–
Cc1cc(O)c2c(=O)c3c(O)cc(O)c4c5c(O)cc(O)c6c(=O)c7c(O)cc(C)cc7c(c65)c(c2c1)c34 [Protohypericin],-0.657,-0.804,-0.73,11323.3,–,–,–,–,18463.4,4183.21,–,–,–
COc1cc(O)c2c(=O)c(-c3ccc(O)cc3)coc2c1 [Prunetin],3.008,2.297,–,–,–,–,–,49877.5,62461.3,37293.6,–,–,2.652

# Continued, in another order:
Z repl 1,Z Repl 2,av Z [1],av puncta [2],raw data 1 (raw puncta),raw data 2 (raw puncta),"AvZ (average z score of seeding, SDs from the mean level of seeding)",av puncta (average of raw data 1 and 2),raw data 1 (puncta),raw data 2 (puncta),av Z [3],av Z [4],SMILES,av Z [5]
0.2,-0.125,–,–,–,–,–,20089.3,28746.2,11432.4,–,0.037,CC(=O)O[C@H]1C(=O)c2c(O)cc(O)cc2O[C@@H]1c1ccccc1 [Pinobanksin 3-acetate],–
-0.797,-0.047,-0.422,14520.5,16779.4,12261.6,–,–,–,–,–,–,COc1cc(O)c2c(c1)O[C@H](c1ccccc1)CC2=O [Pinostrobin],–
0.333,-0.026,–,–,–,–,–,21412.5,30340.8,12484.2,0.153,–,O=C1C[C@@H](c2cc(O)c(O)c(O[C@@H]3O[C@H](CO)[C@@H](O)[C@H](O)[C@H]3O)c2)Oc2cc(O)cc(O)c21 [Plantagoside],–
-0.439,0.604,–,–,–,–,–,20150.3,21083.3,19217.2,–,0.083,COc1cc2c(=O)c3c(O)c([C@@H]4O[C@H](CO[C@@H]5OC[C@](O)(CO)[C@H]5O)[C@@H](O)[C@H](O)[C@H]4O)c(O)cc3oc2cc1O [Polygalaxanthone III],–
0.114,0.572,–,–,–,–,–,23298.5,27718.4,18878.6,0.343,–,Oc1cc(O)c2c(c1)O[C@@]1(c3ccc(O)c(O)c3)Oc3cc(O)c4c(c3[C@@H]2[C@H]1O)O[C@H](c1ccc(O)c(O)c1)[C@@H](O)C4 [Procyanidin A1],–
-0.531,-0.919,-0.725,11465,–,–,–,–,19975.5,2954.48,–,–,Oc1cc(O)c2c(c1)O[C@@]1(c3ccc(O)c(O)c3)Oc3cc(O)c4c(c3[C@@H]2[C@H]1O)O[C@H](c1ccc(O)c(O)c1)[C@H](O)C4 [Procyanidin A2],–
-0.678,-0.711,-0.695,11690.3,–,–,–,–,18204.5,5175.99,–,–,Oc1cc(O)c2c(c1)O[C@H](c1ccc(O)c(O)c1)[C@H](O)[C@H]2c1c(O)cc(O)c2c1O[C@H](c1ccc(O)c(O)c1)[C@H](O)C2 [Procyanidin B2],–
0.76,1.6,–,–,–,–,–,32664.3,35473.6,29854.9,–,–,Oc1cc(O)c2c(c1)O[C@H](c1ccc(O)c(O)c1)[C@H](O)[C@H]2c1c(O)cc(O)c2c1O[C@H](c1ccc(O)c(O)c1)[C@H](O)[C@H]2c1c(O)cc(O)c2c1O[C@H](c1ccc(O)c(O)c1)[C@H](O)C2 [Procyanidin C1],1.18
-0.716,-0.982,–,–,–,–,-0.849,10013.9,17751.7,2276.1,–,–,CCCOC(=O)c1cc(O)c(O)c(O)c1 [Propyl gallate],–
-0.894,-0.283,–,12680.1,–,–,-0.588,–,15614.9,9745.34,–,–,O=Cc1ccc(O)c(O)c1 [Protocatechualdehyde],–
-0.022,-0.809,-0.415,15106.6,26082.6,4130.62,–,–,–,–,–,–,OC[C@]1(O)COc2cc(O)ccc2-c2cc(O)c(O)cc2C1 [Protosappanin B],–
